Laboratory results reported in patent US20260256659A1, “COMPLEX FOR SEALING DENTINAL TUBULE, REAGENT FOR TREATING DENTIN HYPERSENSITIVITY, AND USE THEREOF” (ANHUI MEDICAL UNIVERSITY, priority 2023, published 2026).

System: Streptococcus mutans
Test: In vitro antibacterial properties, turbidimetric method and plate coating method
Type: cell-based
Settings: bacterial absorbance after 4 h incubation and bacterial number counting
Protocol: The anti-Streptococcus mutans performance of the prepared dentin sealing materials was evaluated by a turbidimetric method and a plate coating method.

For `[Cl-].[Cl-].[Sr+2]` [Sr, strontium chloride], the “ability to inhibit Streptococcus mutans” value was “ability to inhibit Streptococcus mutans”.
